The values that follow come from patent US20050245606A1, “High-efficiency fullerene-based radical scavengers” (Nano-C, Inc., priority 2003, published 2005).

The nature of the assay: Scavenging of cigarette smoke radicals in decalin, read out by DHR 6G fluorescence. Format: biochemical. The procedure:
Tests were conducted to study the effectiveness of methanofullerene derivatives against radicals present in cigarette smoke (predominantly peroxyl radical). The cigarette smoke was bubbled through a glass frit into a solvent (decalin) in which radical scavengers were dissolved. The smoke then exited this solvent and was passed through a second flask, in which a fluorescent probe that fluoresces upon oxidation by radicals was used (Dihydrorhodamine 6G (DHR 6G), purchased from Molecular Probes). The variation of fluorescent signal corresponds directly to the radical content of the cigarette smoke, and thus a measure of the reduction of radicals by the radical scavenger is measured. Signals were measured every 10 seconds.
Tests were conducted to study the sensitivity of the test apparatus in Example 1 to varying concentrations of Vitamin E as a radical scavenger to scavenge radicals present in cigarette smoke (predominantly peroxyl radical). The cigarette smoke was bubbled through a cylindrical, coarse glass frit into a solvent (decalin) in which radical scavengers were dissolved. The smoke then exited this solvent and was passed through a second flask, in which a fluorescent probe that fluoresces upon oxidation by radicals was used (Dihydrorhodamine 6G (DHR 6G), purchased from Molecular Probes). The variation of fluorescent signal corresponds directly to the radical content of the cigarette smoke, and thus a measure of the reduction of radicals by the radical scavenger is measured. Signals were measured every 10 seconds.

As to `COC(=O)CCCC1(c2ccccc2)C23C=Cc4cc5c6c7c4C21c1c2c4c(cc8ccc9cc(c6c6c9c8c4c6c17)C5)CC2=C3` (stereo not drawn) [PCBM, [6,6]-phenyl C61-butyric acid methyl ester], the “difference in fluorescence signal / radical scavenging efficiency versus Vitamin E” value (300 μM PCBM versus 300 μM Vitamin E) is “very large difference in radical scavenging efficiency”. Also, the “reduction of radicals by the radical scavenger (fluorescent signal of DHR 6G)” value (scavenger dissolved in decalin, comparison with Vitamin E under identical conditions, FIG. 6A) is “scavenges significantly more of the radicals present in the cigarette smoke than Vitamin E”.
Regarding Vitamin E [reference compound], the “change of fluorescent signal on doubling the scavenger concentration” value (150 μM versus 300 μM in decalin, FIG. 6B) is recorded as “very small deflection”.
